This test deals with T1, Bst DNA polymerase (Geobacillus stearothermophilus, UniProt P52026).
T1 construct: purchased New England Biolabs
T1 sequence (P52026 290-876 limits assumed): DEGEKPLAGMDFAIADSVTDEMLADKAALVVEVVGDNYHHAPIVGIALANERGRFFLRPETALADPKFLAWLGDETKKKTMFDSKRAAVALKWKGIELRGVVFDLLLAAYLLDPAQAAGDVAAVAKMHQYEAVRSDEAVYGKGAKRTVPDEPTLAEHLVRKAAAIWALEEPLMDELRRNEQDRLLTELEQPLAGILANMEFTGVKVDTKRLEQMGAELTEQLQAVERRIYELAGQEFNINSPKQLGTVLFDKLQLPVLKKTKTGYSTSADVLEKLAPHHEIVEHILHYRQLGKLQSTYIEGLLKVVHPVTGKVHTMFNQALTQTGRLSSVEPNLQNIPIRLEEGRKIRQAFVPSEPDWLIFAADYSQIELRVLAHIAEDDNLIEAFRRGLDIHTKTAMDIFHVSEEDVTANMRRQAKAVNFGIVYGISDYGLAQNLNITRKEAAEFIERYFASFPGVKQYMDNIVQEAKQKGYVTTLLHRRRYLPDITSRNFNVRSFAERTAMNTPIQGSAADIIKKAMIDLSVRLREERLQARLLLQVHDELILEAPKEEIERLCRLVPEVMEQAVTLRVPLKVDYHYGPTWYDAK
Description: Single nucleotide extension of 6-mer primers at varying dNTP concentration. Conditions: for extension efficiency of 6-mer primer compared with natural dNTP: dNTP 0.5 microM to 130 microM, 45° C., 8 hours. The format is biochemical. On the procedure:
To further assess the incorporation efficiency of the modified nucleotides by Bst DNA polymerase, the efficiency for a single nucleotide extension reaction was determined using two 6-mer primers in the presence of varying concentrations of dATP, 2-amino-2′-deoxyadenosine-5′-triphosphate, dTTP or 2-thiothymidine-5′-triphosphate (illustrated as 2-thioTTP) (FIGS. 3A and 4A). For this study, the reaction mixtures contained: 20 mM Tris-Cl (pH 8.8 @ 25° C.), 10 mM KCl, 10 mM (NH4)2SO4, 2 mM MgSO4, 0.1% Triton-X100, 500 nanoM 6-mer primer, 20 nanoM 30-mer DNA template, 0.8 units/microL (˜70 nanoM) Bst DNA polymerase and a dNTP concentration ranging from 0.5 microM to 130 microM. The reaction mixtures were incubated at 45° C. for 8 hours and separated by electrophoresis on 20% denaturing (7M urea) polyacrylamide gels.

Each structure is given as a SMILES string.

Broadly, the EC50 is the concentration that produces a half-maximal response. Low values mean a more potent agent, high ones a less potent agent.

In the case of `Cc1cn([C@H]2C[C@H](O)[C@@H](COP(=O)(O)OP(=O)(O)OP(=O)(O)O)O2)c(=S)[nH]c1=O` [2-thiothymidine-5′-triphosphate], the EC50 was approximately 6 µM and the “extension efficiency of 6-mer primer compared with natural dNTP” value is on record as “very similar”.
For `Nc1nc(N)c2ncn([C@H]3C[C@H](O)[C@@H](COP(=O)(O)OP(=O)(O)OP(=O)(O)O)O3)c2n1` [2-amino-2′-deoxyadenosine-5′-triphosphate], the “extension efficiency of 6-mer primer compared with natural dNTP” value was “approximately equal efficiencies”.

Values taken from US20040086880A1, “Method of producing nucleic acid molecules with reduced secondary structure” (priority 1999, published 2004).
